Laboratory results reported in patent US20130029928A1 (priority 2010, published 2013).
Where “and” joins values, the source holds several entries; their conditions need not be identical. Identical values can stand only once. Like-named read-outs stand apart in the source and are kept apart here. Marks after values point to notes of the source that are not given here.

How the values were obtained:
BxPc3 = experiment: ATP depletion cytotoxicity assay 48 hr; type: cell-based, human
Experimental: (§3) Following exposure to Test Items, the CellTitre-Glo Luminescent Cell Viability Assay to measure ATP content was performed according to the manufacturer's detailed instructions (Promega Corporation, Technical Bulletin No. 288, and Cell notes, Issue 10, 2004).
(§4) Cells were plated at the optimal plating density for that cell line in 96-well plates and allowed to attach overnight. […] Cells were exposed to these compounds in Roswell Park Memorial Institute (RPMI) medium containing 10% Foetal Calf Serum (FCS) and 2 mM Glutamine at 37° C. and 5% CO2 for 48 hours. There were 3 replicates for each test item concentration.
(§5) Following exposure to Test Items, the CellTitre-Glo Luminescent Cell Viability Assay to measure ATP content will be performed according to the manufacturer's detailed instructions (Promega Corporation, Technical Bulletin No. 288, and Cell notes, Issue 10, 2004).

XBP1 mRNA = experiment: RT-PCR analysis of XBP1 mRNA splicing in Panc-1 and HepG2 cells; type: cell-based, human; details: Panc-1 500-740 μM, HepG2 300 μM; 1-4 days
Experimental: XBP1-u: unspliced form of XBPI; XBPI-s: spliced form of XBP1.
1. Control; 2. 500 μM/1 day; 3. 500 μM/2 days; […]; 5. 500 μM/4 days; […]; 7. 740 μM/2 days.
Control/1 day; 2. Control/2 days; 3. Control/4 days; 4. Tunicamycin for 24 h; 5. Tunicamycin for 6 h; 6. 300 μM/1 day; 7. 300 μM/2 days; 8. 300 μM/3 days.

[1] = tested on: panel of human tumour-derived cell lines; experiment: Hoechst 3342 staining (apoptotic cells) in the SRB cell line panel; type: cell-based
Hep3B = experiment: SRB cytotoxicity assay 48 hr; type: cell-based, human; details: read-out: IC50 Values After 48 Hrs Exposure
Experimental: (§6) The SRB assay was performed according to the method specified by the NIC/NIH. […] Assay replicates were independent in time and up to 4 replicates were performed per cell line.

MDA-MB-157 [2] = experiment: SRB cytotoxicity assay 48 hr; type: cell-based, human; details: read-out: IC50 Values After 48 Hrs Exposure
Experimental: as §6

HepG2 [3] = experiment: SRB cytotoxicity assay 48 hr; type: cell-based, human; details: read-out: IC50 Values After 48 Hrs Exposure
Experimental: as §6

[4] = tested on: HepG2 (liver) xenograft tumours; experiment: HepG2 xenograft model of liver carcinoma; type: in vivo, nude mouse
Text: There was no obvious difference between the two different dosing regimens.

PC3 [5] = experiment: SRB cytotoxicity assay 48 hr; type: cell-based, human; details: read-out: IC50 Values After 48 Hrs Exposure
Experimental: as §6

HT-29 = experiment: SRB cytotoxicity assay 48 hr; type: cell-based, human; details: read-out: IC50 Values After 48 Hrs Exposure
Experimental: as §6

[6] = tested on: patients with advanced cancer; experiment: Phase I study CXR1002-001: plasma HDL-C and LDL-C; type: in vivo, human; details: 6 weeks of treatment, % baseline
Text: Individual patient raw data was captured and represented in graphs as % change from baseline (screening). […] Data represents either mean±SEM values or median, range+individual data points.

SK-OV3 = experiment: ATP depletion cytotoxicity assay 48 hr; type: cell-based, human
Experimental: (§7) Assay replicates were independent in time and up to 4 replicates were performed per cell line.
(§8) Cells were plated at the optimal plating density for that cell line in 96-well plates and allowed to attach overnight. The next day, the medium was removed and replaced with fresh medium containing the dose ranges of test items. […] There were 3 replicates for each test item concentration.
as §3
(§9) Cells were plated at the optimal plating density for that cell line in 96-well plates and allowed to attach overnight. The next day, cells were pre-treated with the inhibitors UO126 or LY294002 (see Tables 18 & 20) for 2 hrs, the medium was removed and replaced with fresh medium containing the appropriate dose of the test item. […] Cells were exposed to these compounds in Roswell Park Memorial Institute (RPMI) medium containing 10% Foetal Calf Serum (FCS) and 2 mM Glutamine at 37° C. and 5% CO2 for 48 hours. There were 3 replicates for each test item concentration.
as §5

Stability / shelf life = type: physicochemical
[7] = tested on: patients with advanced cancer; experiment: Phase I study CXR1002-001: anti-tumour response; type: in vivo, human
MDA-MB-157 [8] = experiment: ATP depletion cytotoxicity assay 48 hr; type: cell-based, human
Experimental: as §7, §8, §3, §9, §5

TOV-21G = experiment: ATP depletion cytotoxicity assay 48 hr; type: cell-based, human
Experimental: as §7, §8, §3, §9, §5

[9] = tested on: HT-29 (colon adenocarcinoma) tumours; experiment: HT-29 xenograft in nude mice; type: in vivo, nude mouse
Text: (§1) Animals were inoculated with a tumour cell suspension on each flank and the tumours were allowed to grow for 16 days.
(§2) These effects are consistent with a transient effect on the liver associated with mild toxicity and reversible liver enlargement. In rodents, this type of effect is usually due to hepatic PPARα activation associated with peroxisome proliferation.

[10] = HT-29 xenograft in nude mice; type: in vivo, nude mouse; details: nude, mouse, plasma, intraperitoneal, 25 mg/kg; HT-29 model; 24 hrs post last dose; Day 29
Text: as §1, §2

HepG2 [11] = experiment: ATP depletion cytotoxicity assay 48 hr; type: cell-based, human
Experimental: as §7, §8, §3, §9, §5

PANC-1 cells = experiment: Western blot of PCNA and cleaved PARP in PANC-1 cells; type: cell-based, human; details: 450 μM, 24 hrs
Experimental: PCNA is a marker for cell proliferation and cleaved PARP is representative of caspase cleavage and apoptosis. […] Western blot analysis was performed with increasing amounts of protein, ranging between 2 and 20 μg (lanes 1-8). Positive control protein was derived from MCF7 cells (PCNA blot, lane 9) or from HeLa cells treated with staurosporine for 3 hours (Cleaved PARP blot, lanes 9, 10). Levels of total β-Actin are shown as a control for protein loading.
Cells respond to the accumulation of unfolded proteins in the ER by a rescue process called the unfolded protein response (UPR). However, if the unfolded protein accumulation is persistent and the stress cannot be relieved, UPR signalling switches from prosurvival to proapoptotic (Kim (2006)), (Szegezdi (2006)), usually involving processing of caspases (Chang (2006)). Consistent with this hypothesis, CXR1002-treated PANC-1 cells show reduced proliferation and cleavage of the caspase substrate poly-ADP ribose polymerase (PARP) (FIG. 2) in PANC-1 cells.

PANC-1 = experiment: ATP depletion cytotoxicity assay 48 hr; type: cell-based, human
Experimental: as §3, §4, §5

PC3 [12] = experiment: ATP depletion cytotoxicity assay 48 hr; type: cell-based, human
Experimental: as §7, §8, §3, §9, §5

[13] = ATP depletion, 48 hrs, read-out: IC50 1-4 (independent replicates)
[14] = read-out: IC50 1-4 (independent replicates)

O=C(O)C(F)(F)C(F)(F)C(F)(F)C(F)(F)C(F)(F)C(F)(F)C(F)(F)F [CXR1002]
IC50 (BxPc3; [13]): 350 µM and 400 µM | IC50 (BxPc3; Homo sapiens, BXPC-3, 48 h, ATP depletion, 48 hrs, read-out: IC50 1-4 (independent replicates)): 370 µM | IC50 (BxPc3; Homo sapiens, BXPC-3, 48 h, ATP depletion, 48 hrs, read-out: IC50 Mean): 373 µM | IC50 (BxPc3; Homo sapiens, BXPC-3, 48 h, Example 7, 48 hour, CXR1002 0-1 mM, U0126 fixed 10 μM where combined, read-out: IC50): 381 µM | XBP-1 mRNA splicing (XBP1 mRNA): varies from predominately unspliced to spliced | induction of apoptosis ([1]; 10 μM): little effect | induction of apoptosis ([1]; 30 μM): variable responses | induction of apoptosis ([1]; 300 μM): marked induction of apoptosis | IC50 (Hep3B): 215 ± 28.3 µM | IC50 (MDA-MB-157 [2]): 463 ± 168 µM | IC50 (HepG2 [3]): 162 ± 31.8 µM | growth inhibition response ([4]; 25 mg/kg 2× or 3× per week): modest response | Absolute Tumour Volume as a Percentage of Saline Control ([4]; HepG2, 25 mg/kg, combined regimens, Day 53): 77.05% | Terminal CXR1002 plasma levels ([4]; HepG2 model, ×3 weekly regimen, Days 60-64): 520 µM and 520 ± 46 µM | IC50 (PC3 [5]): 272 ± 40.7 µM | IC50 (HT-29): 342 ± 10.6 µM | effect on plasma HDL-C [6]: remains unchanged | effect on plasma LDL-C [6]: lowering effect | IC50 (SK-OV3; Homo sapiens, SK-OV-3, 48 h, read-out: IC50 1-4 (independent replicates)): 550 µM | IC50 (SK-OV3; Homo sapiens, SK-OV-3, 48 h, read-out: IC50 Mean): 535 µM | IC50 (SK-OV3; [14]): 520 µM | stability (Stability / shelf life): extremely stable | On-Study Duration ([7]; 50 mg/week, pancreatic): 35 weeks | On-Study Duration ([7]; 100 mg/week, colorectal): 20 weeks | On-Study Duration ([7]; 200 mg/week, anaplastic thyroid, patient remains on study): 22* weeks | On-Study Duration ([7]; 200 mg/week, cervical, patient remains on study): 22* weeks | best response ([7]; investigator assessment): stable disease | duration of stable disease ([7]; one patient with pancreatic cancer): 7 months | IC50 (MDA-MB-157 [8]; Homo sapiens, MDA-MB-157, 48 h, read-out: IC50 1-4 (independent replicates), ATP depletion, 48 hrs, MDA-MB-157): 670 µM | IC50 (MDA-MB-157 [8]; Homo sapiens, MDA-MB-157, 48 h, read-out: IC50 Mean, ATP depletion, 48 hrs, MDA-MB-157): 665 µM | IC50 (MDA-MB-157 [8]; read-out: IC50 1-4 (independent replicates), ATP depletion, 48 hrs, MDA-MB-157): 675 µM and 650 µM | IC50 (TOV-21G; [13]): 600 µM and 700 µM | IC50 (TOV-21G; Homo sapiens, TOV21G, 48 h, ATP depletion, 48 hrs, read-out: IC50 1-4 (independent replicates)): 610 µM | IC50 (TOV-21G; Homo sapiens, TOV21G, 48 h, ATP depletion, 48 hrs, read-out: IC50 Mean): 637 µM | IC50 (TOV-21G; Homo sapiens, TOV21G, 48 h, Example 7, 48 hour, CXR1002 0-1 mM, U0126 fixed 10 μM where combined, read-out: IC50): 615 µM | effect on tumour volumes ([9]; 25 mg/kg i.p. three times per week for 28 days): anti-tumour effect | Absolute Tumour Volume as a Percentage of Saline Control ([9]; HT-29, 25 mg/kg i.p. three times per week, Day 29): 49.22% | effect on body weight ([9]; HT-29 model): No significant compound-dependent effects | increase in liver weight ([9]; HT-29 model): up to 2.5 fold | Terminal / maximum CXR1002 plasma level ([9]; HT-29 model, 24 hrs post last dose, Day 29): 277 µM | increase in plasma AST ([9]; mice bearing HT-29 xenografts): up to 3.5 fold | plasma ALT levels ([9]; mice bearing HT-29 xenografts): decreased | plasma glucose and triglyceride levels ([9]; tumour-bearing nude mice, HT-29): slight reductions | concentration at 24 h [10]: 277 µM | IC50 (HepG2 [11]; Homo sapiens, HepG2, 48 h, read-out: IC50 1-4 (independent replicates)): 240 µM | IC50 (HepG2 [11]; Homo sapiens, HepG2, 48 h, read-out: IC50 Mean): 273 µM | IC50 (HepG2 [11]; [14]): 230 µM and 350 µM | PCNA protein level (cell proliferation marker) (PANC-1 cells): reduced PCNA levels | cleaved PARP protein level (apoptosis marker) (PANC-1 cells): increased cleaved PARP | IC50 (PANC-1; [13]): > 1 mM (2×) and 880 µM | IC50 (PANC-1; Homo sapiens, PANC-1, 48 h, ATP depletion, 48 hrs, read-out: IC50 1-4 (independent replicates)): > 1 mM | IC50 (PANC-1; Homo sapiens, PANC-1, 48 h, ATP depletion, 48 hrs, read-out: IC50 Mean): > 1 mM | IC50 (PANC-1; Homo sapiens, PANC-1, 48 h, Example 7, 48 hour, CXR1002 0-1 mM, U0126 fixed 10 μM where combined, read-out: IC50): > 1 mM | IC50 (PC3 [12]; Homo sapiens, PC-3, 48 h, read-out: IC50 1-4 (independent replicates)): 650 µM | IC50 (PC3 [12]; Homo sapiens, PC-3, 48 h, read-out: IC50 Mean): 642 µM | IC50 (PC3 [12]; [14]): 625 µM
